The record followed here is patent publication US20080118489A1, “Charge-Modified Lysozyme Antimicrobial Compositions, Surfactants, and Methods for Infections and Cystic Fibrosis” (priority 2005, published 2008).

≈ marks a conversion by molar mass, not a printed value.

For assay [1], the system named is Calf thymus (CT) DNA. Briefly: SAXS of DNA + tobramycin (+ cationic lipid) suspensions. It counts as binding. An excerpt:
For our studies of the sequestration of aminoglycoside antibiotics by model CF sputum and subsequent release by the administration of surfactants we used the following materials. The aminoglycoside antibiotic used in our experiments was Tobramycin (Sigma Aldrich), commonly used to treat infections of Pseudomonas aeruginosa in CF patients. […] For the DNA+tobramycin experiments we used Calf thymus (CT) DNA (USB Corp. Cleveland Ohio), purified it using standard techniques, and resuspended it in an aqueous solution of 100 mM NaCl 5 mM Tris and 5 mM PIPES adjusted to pH 7. DNA has a charge of approximately −2/base pair.
Surfactant materials used in the present experiments were a mixture of two lipids DOTAP (1,2-Dioleoyl-3-Trimethylammonium-Propane) and DOPE (1,2-Dioleoyl-sn-Glycero-3-Phosphoethanolamine) (Avanti Polar lipids, Alabaster Al.) in mass ratios of about 70:30 and about 25:75. DOTAP is a cationic lipid (charge of +1) with no curvature, and DOPE is a neutral lipid with negative curvature. Briefly, the lipids were first dissolved in chloroform, then dried under nitrogen and redissolved in an aqueous solution. The aqueous salt solution was then sonicated to form unilamellar lipid vescicles, and filtered through 0.2 micron pores.
Aminoglycoside antibiotic sequestration by negatively charged bio-polymers in respiratory mucous of CF patients was measured via two techniques. The first method was to use x-ray diffraction techniques to discern the structure of suspensions of mixtures of biopolymers and antibiotic. Specific x-ray diffraction studies were done to determine the structure of mixtures of the DNA with tobramycin and the lipid mixture. The isoelectric DNA-lipid-monovalent salt solutions were sealed in 1.5 mm quartz capillaries (Hilgenberg GmbH; Malsfeld, Germany) and mixed thoroughly by centrifugation. The approximate sample volume in the capillary was 30 μl-60 μl. SAXS experiments were performed as described previously. Tobramycin has charge of approximately +5 at physiological pH, whereas DNA is negatively charged, thus when the ratio of net DNA charge is approximately equal to the net tobramycin charge (T/D˜1), the tobramycin condenses the DNA. The resulting structure is a bundle of DNA. The structures observed via x-ray diffraction indicate whether or not the tobramycin is sequestered with the DNA or free in suspension. The present invention uses positively charged lipids to replace the tobramycin in these bundles, thereby increasing the efficacy of the antibiotic. Consequently, our experiments used a fixed DNA concentration of 3 mg/ml (x-ray experiments) and a varied concentration of tobramycin and/or lipid. Concentrations are varied such that the ratio of positive to negative charges is known. Similar x-ray diffraction studies can be conducted wherein mucin, instead of DNA, is the sequestration agent to examine mucin+tobramycin+lipid complexes and kinetics.

For assay [2], the system named is Pseudomonas aeruginosa (PA01). Kind of assay: Bacterial killing assay, tobramycin with or without mucin. In kind it is cell-based. As for the experimental part: Tobramycin sequestration was also measured via bacteriological killing assays. In these bacterial killing assay experiments Pseudomonas aeruginosa (PA01), the primary bacteria responsible for infection in CF patients, was incubated in the presence of mucin, DNA, tobramycin, lipid or various mixtures of these four materials. Killing assays were performed in the following manner: PA01 was grown in cation adjusted Mueller-Hinton media to a concentration greater than 5×10^8, sedimented by centrifugation and resuspended in a buffered solution of 5 mM Tris 5 mM PIPES and 100 mM NaCl at pH 7.2. A quantity of […]. of PAO1 were incubated for 3.5 hours in the buffered salt solution with varied concentrations of tobramycin, DNA, mucin, and lipids. The mucin concentrations were either 0 mg/ml (control) or 10 mg/ml which is near the physiologically measured concentrations of mucin. Lipids added to the bacterial solution were added in varying concentrations in order to determine the amount needed to release tobramycin from its strong interaction with mucin and/or DNA. The bacterial solution was serially diluted and plated on MH-agar plates. Plates were incubated overnight and the number of bacterial colonies counted.

Assay [3] has as its target T1, F-actin (Oryctolagus cuniculus, UniProt P68135).
T1 construct: prepared from a lyophilized powder of rabbit skeletal muscle; purchased Cytoskeleton, Inc. (Denver, Col.); host or cells: rabbit skeletal muscle (tissue-derived)
Kind of assay: SAXS of F-actin / hen egg white lysozyme bundles. In kind it is binding, rabbit. The method, then:
Monomeric G-actin (MW 42,000) was prepared from a lyophilized powder of rabbit skeletal muscle purchased from Cytoskeleton, Inc. (Denver, Col.). The non-polymerizing G-actin solution contained a 5 mM TRIS buffer at pH 8.0, with 0.2 mM CaCl2, 0.5 mM ATP, and 0.2 mM DTT and 0.01% NaN3. G-actin (2 mg/ml) was polymerized into F-actin (linear charge density λA˜−1 e /2.5 Å at pH 7) upon the addition of salt (100 mM KCl). Human plasma gelsolin (Cytoskeleton, Inc., Denver, Col.) was used to control the average F-actin length between 0.1 μm to 10 μm. The filaments were treated with phalloidin (Sigma Aldrich, St. Louis, Mo., MW 789.2) to prevent actin depolymerization and resuspended to a final concentration of ˜26.67 mg/ml using Millipore (Billerica, Mass.) H2O (18.2MΩ). Hen Egg White Lysozyme (MW 14,300, Sigma Aldrich, St. Louis, Mo.) was dissolved in Millipore H2O (18.2MΩ) to a final concentration ˜25 mg/ml. Lysozyme carries a pH dependent charge of +9 or +10 and has dimensions of approximately ˜26Å×26Å×45 Å.
The F-actin—lysozyme isoelectric point is found at a concentration ratio of ˜2.5:1 F-actin:lysozyme. X-ray samples were prepared at various F-actin:lysozyme concentration ratios on either side of the isoelectric point, including 2:1, 2.5:1, 3:1, and 5:1. […]

On to `NC[C@H]1O[C@H](O[C@H]2[C@H](O)[C@@H](O[C@H]3O[C@H](CO)[C@@H](O)[C@H](N)[C@H]3O)[C@H](N)C[C@@H]2N)[C@H](N)C[C@@H]1O` [tobramycin], for which, in assay [1] (DNA 3 mg/ml, pH 7), the “ratio of tobramycin charge to DNA charge (T/D) at which bundled DNA peak appears” value is around 1 and the “tobramycin concentration at which bundled DNA peak appears” value came to 1.9 mM. The “preference of interaction, DNA versus F-actin” value in assay [1] (F-actin 5 mg/ml + DNA 1 mg/ml + tobramycin) is on record as “preferentially interacts with DNA over F-actin”. Also, the “sequestration of tobramycin by DNA at raised lipid concentration” value in assay [1] (T/D approaching 1, L/D=2) is “again unsequestered by the DNA”. In addition, the “sequestration of tobramycin by DNA without lipid” value in assay [1] (T/D=0.5 and T/D=0.9, absence of lipids) is recorded as “sequestered by DNA”. In assay [1] (lipid concentration greater than or equal to that required for DNA charge neutralization), the “sequestration of tobramycin by DNA with cationic lipid” value is recorded as “not sequestered”. In addition, the “tobramycin concentration until which mucin inhibits killing ability” value in assay [2] (10 mg/ml mucin) is 20 × the minimal inhibitory concentration (MIC). The MIC in assay [2] (Pseudomonas aeruginosa, 3.5 hours, 5 mM Tris 5 mM PIPES 100 mM NaCl pH 7.2, read-out: minimal inhibitory concentration (MIC)) was around 5 µg/mL (≈ 10.7 µM). Also, the “biological accessibility, fraction of the available dose” value in assay [2] (sequestration by anionic polyelectrolytes of CF sputum) is 1/20.
Take “lysozyme: Hen Egg White Lysozyme (MW 14,300, Sigma Aldrich)”: the “NaCl concentration up to which the F-actin-lysozyme close pack bundling peak increases” value in assay [3] is around 150 mM. Also, in assay [3] (NaCl), the “salt concentration above which the lysozyme-actin bundling peak disappears” value is reported as “above 200 mM”.
